Experimental findings from patent publication US9133435B2, “Method for induction/differentiation into photoreceptor cell” (RIKEN, priority 2007, dated 2015) are described below.

The test system of the experiment is mouse ES cells. The experiment is described as follows: Induction of differentiation of mouse ES cells into neural cells (βII tubulin-positive cells). The experiment is classed as cell-based. The note with it: SB-431542 0.1 to 10 μM or CKI-7 1 to 100 μM, single agent. On the procedure:
Mouse ES cells were cultured in the presence of SB-431542 (0.1 to 10 μM) and/or CKI-7 (1 to 100 μM) under SFEB conditions. Five days after the start of the culture, the cells were recovered and re-suspended in a fresh differentiation medium, and, to produce re-aggregated pellets, the suspension was centrifuged at 800 g for 10 minutes. After cultivation at 37° C. for 1 hour, three to five re-aggregated pellets per cm^2 were replated onto poly-D-lysine/laminin/fibronectin-coated culture slides, along with differentiation medium. After cultivation for 5 days, the cells were fixed and stained with anti-βII tubulin antibody, and the ratio of βII tubulin-positive cells was determined under microscopy. The other experimental conditions were the same as those for Example 1.

Take `NCCNS(=O)(=O)c1ccc(Cl)c2ccncc12` [CKI-7, N-(2-aminoethyl)-5-chloro-isoquinoline-8-sulfonamide]: the “number of βII tubulin-positive cells” value was “increased”.
Consider `NC(=O)c1ccc(-c2nc(-c3ccc4c(c3)OCO4)c(-c3ccccn3)[nH]2)cc1` [SB-431542], for which the “number of βII tubulin-positive cells” value is “increased”.
